Target: glucocorticoid receptor (Homo sapiens (Human), UniProt P04150)
Test: HepG2 TAT assay: inhibition of dexamethasone-induced tyrosine aminotransferase (TAT) activity
Assay type: cell-based
Conditions: HepG2 cells, challenge of 100 nM dexamethasone, 18-24 hr; IC50 converted to Ki by Cheng and Prusoff equation
Method: Glucocorticoid mediated activation of TAT occurs by transactivation of glucocorticoid response elements in the TAT promoter by glucocorticoid receptor-agonist complex.
HepG2 cells were cultured using MEME media supplemented with 10% (v/v) foetal bovine serum; 2 mM L-glutamine and 1% (v/v) NEAA at 37° C., 5%/95% (v/v) CO2/air.
Compounds were serially half log diluted in 100% (v/v) dimethylsulphoxide from a 10 mM stock.
HepG2 cells were then lysed with 30 μl of cell lysis buffer containing a protease inhibitor cocktail for 15 minutes at 4° C. […] After 2 hours incubation at 37° C. the reaction was terminated by the addition of 15 μl of 10M aqueous potassium hydroxide solution, and the plates incubated for a further 30 minutes at 37° C.
[compound] and fitting the data to a 4 parameter logistic equation.

Sequence of glucocorticoid receptor (P04150 whole entry): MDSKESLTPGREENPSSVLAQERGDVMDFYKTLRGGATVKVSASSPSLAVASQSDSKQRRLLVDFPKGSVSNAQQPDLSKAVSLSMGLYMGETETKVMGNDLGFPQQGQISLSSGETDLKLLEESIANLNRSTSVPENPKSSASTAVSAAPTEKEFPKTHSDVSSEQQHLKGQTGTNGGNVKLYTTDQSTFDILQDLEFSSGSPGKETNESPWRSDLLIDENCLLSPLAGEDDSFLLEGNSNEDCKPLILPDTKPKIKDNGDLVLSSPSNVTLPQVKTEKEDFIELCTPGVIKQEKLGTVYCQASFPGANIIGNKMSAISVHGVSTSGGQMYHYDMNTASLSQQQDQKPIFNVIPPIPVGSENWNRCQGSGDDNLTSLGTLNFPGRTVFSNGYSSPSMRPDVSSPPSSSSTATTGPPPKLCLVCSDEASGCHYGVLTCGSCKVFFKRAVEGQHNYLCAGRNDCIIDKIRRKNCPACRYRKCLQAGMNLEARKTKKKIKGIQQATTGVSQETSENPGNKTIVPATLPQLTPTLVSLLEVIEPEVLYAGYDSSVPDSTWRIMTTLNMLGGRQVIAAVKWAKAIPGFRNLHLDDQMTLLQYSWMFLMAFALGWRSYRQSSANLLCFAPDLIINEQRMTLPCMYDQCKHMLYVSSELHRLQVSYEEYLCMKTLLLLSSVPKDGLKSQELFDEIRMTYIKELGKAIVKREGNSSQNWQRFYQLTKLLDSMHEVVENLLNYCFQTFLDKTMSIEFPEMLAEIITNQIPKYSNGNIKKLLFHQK

| Compound | Ki [nM] |
| --- | --- |
| Cc1cc2c(cnn2-c2ccc(F)cc2)cc1[C@@]12CN(C(=O)c3cccc(F)c3)C[C@@H]1[C@H]2c1ccccc1 (stereo in doubt) [Example 117, (3-fluorophenyl)(1-(1-(4-fluorophenyl)-6-methyl-1H-indazol-5-yl)-6-phenyl-3-azabicyclo[3.1.0]hexan-3-yl)methanone] | 34 |
| Cc1cc2c(cnn2-c2ccc(F)cc2)cc1[C@@]12CN(C(=O)C3CCC3)C[C@@H]1[C@H]2c1ccccc1 (stereo in doubt) [Example 120, cyclobutyl(1-(1-(4-fluorophenyl)-6-methyl-1H-indazol-5-yl)-6-phenyl-3-azabicyclo[3.1.0]hexan-3-yl)methanone] | 52 |
| Cc1cc2c(cnn2-c2ccc(F)cc2)cc1[C@@]12CN(C(=O)N3CCOCC3)C[C@@H]1[C@H]2c1ccccc1 (stereo in doubt) [Example 121, (1-(1-(4-fluorophenyl)-6-methyl-1H-indazol-5-yl)-6-phenyl-3-azabicyclo[3.1.0]hexan-3-yl)(morpholino)methanone] | 49 |
| Cc1noc([C@@H]2[C@H]3CN(S(=O)(=O)c4cnn(C)n4)C[C@]32c2cc3cnn(-c4ccc(F)cc4)c3cc2C)n1 (stereo in doubt) [Example 131, 5-(1-(1-(4-fluorophenyl)-6-methyl-1H-indazol-5-yl)-3-((2-methyl-2H-1,2,3-triazol-4-yl)sulfonyl)-3-azabicyclo[3.1.0]hexan-6-yl)-3-methyl-1,2,4-oxadiazole] | 240 |
| Cc1cc2c(cnn2-c2ccc(F)cc2)cc1[C@@]12CN(S(=O)(=O)c3cnn(C)n3)C[C@@H]1[C@H]2Cn1cccn1 (stereo in doubt) [Example 132, 5-(6-((1H-pyrazol-1-yl)methyl)-3-((2-methyl-2H-1,2,3-triazol-4-yl)sulfonyl)-3-azabicyclo[3.1.0]hexan-1-yl)-1-(4-fluorophenyl)-6-methyl-1H-indazole] | 350 |
| COCCOCCS(=O)(=O)N1C[C@@H]2[C@@H](c3ccccc3)[C@]2(c2cc3cnn(-c4ccc(F)cc4)c3cc2C)C1 (stereo in doubt) [Example 138, 1-(4-fluorophenyl)-5-(3-((2-(2-methoxyethoxy)ethyl)sulfonyl)-6-phenyl-3-azabicyclo[3.1.0]hexan-1-yl)-6-methyl-1H-indazole] | 70 |
| Cc1cc2c(cnn2-c2ccc(F)cc2)cc1[C@@]12CN(S(=O)(=O)C3CCC3)C[C@@H]1[C@H]2c1ccccc1 (stereo in doubt) [Example 139, 5-(3-(cyclobutylsulfonyl)-6-phenyl-3-azabicyclo[3.1.0]hexan-1-yl)-1-(4-fluorophenyl)-6-methyl-1H-indazole] | 45 |
| Cc1cc2c(cnn2-c2ccc(F)cc2)cc1[C@@]12CN(C(=O)c3cccc(N4CCOCC4)c3)C[C@@H]1[C@H]2c1ccccc1 (stereo in doubt) [Example 142, (1-(1-(4-fluorophenyl)-6-methyl-1H-indazol-5-yl)-6-phenyl-3-azabicyclo[3.1.0]hexan-3-yl)(3-morpholinophenyl)methanone] | 15 |
| Cc1cc2c(cnn2-c2ccc(F)cc2)cc1[C@@]12CN(C(=O)c3cccc(C(F)F)c3)C[C@@H]1[C@H]2c1ccccc1 (stereo in doubt) [Example 143, (3-(difluoromethyl)phenyl)(1-(1-(4-fluorophenyl)-6-methyl-1H-indazol-5-yl)-6-phenyl-3-azabicyclo[3.1.0]hexan-3-yl)methanone] | 25 |
| Cc1cc2c(cnn2-c2ccc(F)cc2)cc1[C@@]12CN(C(=O)c3cccc(C(F)(F)F)n3)C[C@@H]1[C@H]2c1ccccc1 (stereo in doubt) [Example 145, (1-(1-(4-fluorophenyl)-6-methyl-1H-indazol-5-yl)-6-phenyl-3-azabicyclo[3.1.0]hexan-3-yl)(6-(trifluoromethyl)pyridin-2-yl)methanone] | 48 |
| Cc1cc2c(cnn2-c2ccc(F)cc2)cc1[C@@]12CN(C(=O)c3ccn(C)n3)C[C@@H]1[C@H]2c1ccccc1 (stereo in doubt) [Example 154, (1-(1-(4-fluorophenyl)-6-methyl-1H-indazol-5-yl)-6-phenyl-3-azabicyclo[3.1.0]hexan-3-yl)(1-methyl-1H-pyrazol-3-yl)methanone] | 16 |
| Cc1cc2c(cnn2-c2ccc(F)cc2)cc1[C@@]12CN(C(=O)c3ncccc3F)C[C@@H]1[C@H]2c1ccccc1 (stereo in doubt) [Example 156, (1-(1-(4-fluorophenyl)-6-methyl-1H-indazol-5-yl)-6-phenyl-3-azabicyclo[3.1.0]hexan-3-yl)(3-fluoropyridin-2-yl)methanone] | 20 |
| Cc1cc2c(cnn2-c2ccc(F)cc2)cc1[C@@]12CN(C(=O)c3ncc(F)cc3F)C[C@@H]1[C@H]2c1ccccc1 (stereo in doubt) [Example 157, (3,5-difluoropyridin-2-yl)(1-(1-(4-fluorophenyl)-6-methyl-1H-indazol-5-yl)-6-phenyl-3-azabicyclo[3.1.0]hexan-3-yl)methanone] | 18 |
| Cc1cc2c(cnn2-c2ccc(F)cc2)cc1[C@@]12CN(C(=O)c3nccs3)C[C@@H]1[C@H]2c1ccccc1 (stereo in doubt) [Example 158, (1-(1-(4-fluorophenyl)-6-methyl-1H-indazol-5-yl)-6-phenyl-3-azabicyclo[3.1.0]hexan-3-yl)(thiazol-2-yl)methanone] | 12 |
| Cc1cc2c(cnn2-c2ccc(F)cc2)cc1[C@@]12CN(C(=O)c3ccccc3S(C)(=O)=O)C[C@@H]1[C@H]2c1ccccc1 (stereo in doubt) [Example 159, (1-(1-(4-fluorophenyl)-6-methyl-1H-indazol-5-yl)-6-phenyl-3-azabicyclo[3.1.0]hexan-3-yl)(2-(methylsulfonyl)phenyl)methanone] | 24 |
| Cc1cc2c(cnn2-c2ccc(F)cc2)cc1[C@@]12CN(C(=O)C3CCOCC3)C[C@@H]1[C@H]2c1ccccc1 (stereo in doubt) [Example 160, (1-(1-(4-fluorophenyl)-6-methyl-1H-indazol-5-yl)-6-phenyl-3-azabicyclo[3.1.0]hexan-3-yl)(tetrahydro-2H-pyran-4-yl)methanone] | 70 |
| Cc1cc2c(cnn2-c2ccc(F)cc2)cc1[C@@]12CN(C(=O)c3ccnn3C)C[C@@H]1[C@H]2c1ccccc1 (stereo in doubt) [Example 161, (1-(1-(4-fluorophenyl)-6-methyl-1H-indazol-5-yl)-6-phenyl-3-azabicyclo[3.1.0]hexan-3-yl)(1-methyl-1H-pyrazol-5-yl)methanone] | 61 |
| Cc1cc2c(cnn2-c2ccc(F)cc2)cc1[C@@]12CN(C(=O)c3ncccc3C)C[C@@H]1[C@H]2c1ccccc1 (stereo in doubt) [Example 162, (1-(1-(4-fluorophenyl)-6-methyl-1H-indazol-5-yl)-6-phenyl-3-azabicyclo[3.1.0]hexan-3-yl)(3-methylpyridin-2-yl)methanone] | 29 |
| Cc1cc2c(cnn2-c2ccc(F)cc2)cc1[C@@]12CN(C(=O)c3cccc(C#N)n3)C[C@@H]1[C@H]2c1ccccc1 (stereo in doubt) [Example 164, 6-(1-(1-(4-fluorophenyl)-6-methyl-1H-indazol-5-yl)-6-phenyl-3-azabicyclo[3.1.0]hexane-3-carbonyl)picolinonitrile] | 7.2 |

Source: patent publication US20250115583A1, “BICYCLIC INDAZOLE GLUCOCORTICOID RECEPTOR ANTAGONISTS” (Corcept Therapeutics Incorporated, priority 2021, published 2025)
